The values that follow come from PubChem BioAssay (NCI).

Each structure is given as a SMILES string.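 Assay format: 96-well plates, 48-hour exposure. The concentration for full growth arrest is given as TGI.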

What all share (experiment): NCI tumour cell line growth inhibition, 48 h
The test system of test [1] is MDA-MB-435.
In test [2] the test system is CCRF-CEM leukemia.
For test [3], the system named is SW-620 colon.
The test system of test [4] is OVCAR-4 ovarian.
Test [5] relates to BT-549 breast.
Test [6] deals with MALME-3M melanoma.
Test [7] relates to NCI-H460 lung.
Test [8] deals with UO-31 renal.
The subject of test [9] is SNB-19 CNS.
Test [10] relates to UACC-257 melanoma.
The subject of test [11] is NCI/ADR-RES ovarian.
The subject of test [12] is MCF7 breast.
Test [13] concerns SK-MEL-5 melanoma.
The test system of test [14] is MDA-MB-231 breast.
Test [15] concerns HT29 colon.
For test [16], the system named is SK-OV-3 ovarian.
Test [17] concerns SNB-75 CNS.
Test [18] concerns OVCAR-3 ovarian.
Test [19] deals with HOP-92 NSCLC.

Consider `CC(C)c1nc2cc(C(F)(F)F)ccc2[nH]c1=O`, for which the TGI in [1], in [2], in test [3], in test [4], in [5] and in test [6] was above 100 µM each time. Moreover, the TGI in test [7], in [8], in [9], in test [10], in test [11] and in test [12] was above 100 µM each time. For the same compound, the TGI in test [13], in test [14], in [15], in test [16], in [17] and in test [18] was above 100 µM throughout. The compound further gave a TGI in test [19] above 100 µM.

Consider `CC(C)C[C@H](NC(=O)[C@H](Cc1ccccc1)NC(=O)CCc1ccccc1)B(O)O`, for which the TGI in test [1] was below 0.01 µM; in test [2], above 100 µM; in [3], below 0.0104 µM; in test [4], below 0.01 µM; in test [5], below 0.01 µM; in test [6], below 0.01 µM. Besides, the TGI is below 0.0104 µM in [7]; below 0.01 µM in test [8]; 1.08 µM in [9]; below 0.01 µM in test [10]; 1.82 µM in test [11]; 0.225 µM in test [12]. In addition, the TGI in [13] was below 0.01 µM; in [14] it was below 0.01 µM; in test [15] it was below 0.01 µM; in [16], 0.0727 µM; in test [17] it was below 0.01 µM; in test [18], below 0.01 µM. The TGI in [19] was below 0.01 µM.

As to `C1=Nc2ccc(cc2)N=Cc2ccc(cc2)OCc2cccc(n2)COc2ccc1cc2`, the TGI in test [1], in test [2], in test [3], in [4], in test [5] and in [6] was above 100 µM in each case. Also, the TGI in [7], in test [8], in test [9], in test [10], in test [11] and in test [12] was above 100 µM in each case. For the same compound, the TGI in test [13], in test [14], in test [15], in test [16], in test [17] and in test [18] was above 100 µM throughout. The compound further gave a TGI in test [19] above 100 µM.

As to `COC(=O)C1=C(C(=O)OC)C(Cc2ccccc2)(OO)OC1=O` (stereo unspecified), the TGI in test [1] is above 100 µM; in test [2] it was 6.69 µM; in test [3] it was above 100 µM; in [4], 52.3 µM; in test [5], 26.3 µM; in test [6] it was 24.5 µM. Besides, the TGI was above 100 µM in [7]; 26.9 µM in test [8]; 58.9 µM in test [9]; above 100 µM in [10]; above 100 µM in test [11]; 53.9 µM in [12]. The TGI in [13] was above 100 µM; in test [14], above 100 µM; in [15], 24.2 µM; in test [16], 94.4 µM; in test [17], 49.6 µM; in test [18] it was 19.7 µM. In [19], the TGI was determined as 42.4 µM.

On to `S=C1Cc2c(-c3ccc(Cl)cc3)cc(-c3ccccc3)nc2-c2ccccc2N1`, for which the TGI in [1] is 46 µM; in test [2], above 100 µM; in [3] it was above 100 µM; in test [4] it was 18 µM; in [5], 35 µM; in test [6] it was 35.9 µM. Further, the TGI in test [7] was 36.2 µM; in [8], 35.8 µM; in test [9], 21.5 µM; in test [10] it was 36.1 µM; in test [11], 48.6 µM; in test [12], above 100 µM. In addition, the TGI in test [13] is above 100 µM; in test [14], 23.8 µM; in [15], 21.6 µM; in [16], 25.7 µM; in [17] it was 17.4 µM; in [18], 29.8 µM. For the same compound, the TGI in [19] stood at 26.7 µM.

For `CCCN1CC=C(c2cc(C(=O)OCC)[nH]c2-c2cc(C)no2)C1=O`, the TGI in test [1], in test [2], in [3], in test [4], in [5] and in [6] was above 100 µM in each case. Also, the TGI in test [7], in test [8], in test [9], in [10], in test [11] and in test [12] was above 100 µM throughout. Moreover, the TGI in test [13], in [14], in test [15], in test [16], in test [17] and in test [18] was above 100 µM each time. Further, the TGI in [19] was above 100 µM.

Take `COc1cc(-c2cc(=O)c3c(OC)c(OC)c(OC)cc3o2)c(OC)c(OC)c1OC`: the TGI in [1], in test [2], in test [3], in test [4], in test [5] and in [6] was above 75 µM throughout. Further, the TGI in test [7], in test [8], in test [9], in [10], in test [11] and in test [12] was above 75 µM each time. The TGI in [13], in [14], in test [15], in test [16], in test [17] and in test [18] was above 75 µM each time. The TGI in [19] is above 75 µM.

As to `S=c1nc(Cc2ccc(Cl)cc2)[nH][nH]1`, the TGI in test [1], in [2], in test [3], in test [4], in test [5] and in test [6] was above 100 µM in each case. The TGI in test [7], in test [8], in [9], in test [10], in test [11] and in test [12] was above 100 µM throughout. The TGI in test [13], in test [14], in [15], in test [16], in test [17] and in test [18] was above 100 µM in each case. This compound also registered a TGI in [19] of 85.7 µM.

For `O=c1[nH]cnc2c1sc1nc3ccccc3n12`, the TGI in test [1], in [2], in test [3], in [4], in test [5] and in test [6] was above 100 µM throughout. In addition, the TGI in [8], in test [9], in test [10], in test [11], in [12] and in test [13] was above 100 µM in each case. In addition, the TGI in test [14], in test [15], in [16], in test [17], in test [18] and in [19] was above 100 µM each time.

For `COc1cc2c(c(O)c1OC)C(O)C1CCC(=O)N1C2c1cccc2ccccc12` (stereo unspecified), the TGI in [1], in [2], in [3], in test [4], in test [5] and in [6] was above 100 µM each time. The TGI in [7], in [8], in test [9], in test [10], in test [11] and in test [12] was above 100 µM throughout. Also, the TGI in [13], in test [14], in test [15], in test [16], in [17] and in test [18] was above 100 µM throughout. Moreover, the TGI in [19] is above 100 µM.

As to `C=C1[C@H](OC(=O)C(C)C)[C@]23CC4(O)[C@@H]5[C@@]6(C)CCC[C@]57C([C@@H]2C[C@@]1(O)[C@H](O)[C@@H]73)N4C6`, the TGI in test [1], in test [2], in test [3], in test [4], in test [5] and in test [6] was above 100 µM in each case. Besides, the TGI in test [7], in test [8], in test [9], in test [10], in test [11] and in test [12] was above 100 µM each time. The TGI in test [13], in test [14], in test [15], in test [16], in [17] and in [18] was above 100 µM in each case. The compound also returned a TGI in test [19] above 100 µM.

On to `COc1ccc(/C=C/c2sc3ccccc3[n+]2CCCCI)cc1OC`, for which the TGI in test [1], in test [2], in [3], in [4], in test [5] and in [6] was above 10 µM throughout. Further, the TGI in test [7], in test [8], in test [9], in test [10], in [11] and in test [12] was above 10 µM each time. The TGI in test [13], in test [14], in test [15], in [16], in test [17] and in [18] was above 10 µM in each case. The TGI in test [19] is above 10 µM.

In the case of `O=c1[nH]c2ccc(Cl)cc2c2oc(-c3ccccc3)nc12`, the TGI in test [1] is above 100 µM; in [2], above 100 µM; in test [3], above 100 µM; in test [4] it was 35.4 µM; in test [5] it was above 100 µM; in test [6], 78 µM. For the same compound, the TGI in [7] was 36.9 µM; in test [8], 44.2 µM; in [9] it was 43.1 µM; in [10], above 100 µM; in test [11], 86.6 µM; in [12], above 100 µM. Further, the TGI in test [13] is 85.8 µM; in [14], 43.4 µM; in test [15], above 100 µM; in test [16], 44.1 µM; in test [18], 46.6 µM; in test [19], 52.2 µM.

`COc1cc(OC)cc(OCc2ccc3nc(-c4ccccc4)c(Cl)nc3c2)c1`: the TGI in test [1] was above 100 µM; in test [2], above 100 µM; in test [3], above 100 µM; in test [4] it was above 100 µM; in test [5], 65.3 µM; in test [6] it was 32.7 µM. The TGI in test [7] was above 100 µM; in [8], above 100 µM; in test [9], 66.9 µM; in test [10] it was above 100 µM; in test [11] it was 67.8 µM; in test [12], above 100 µM. Also, the TGI in test [13] is 69.9 µM; in test [14] it was 30.5 µM; in test [15], above 100 µM; in [17], 37.4 µM; in [18] it was above 100 µM; in [19], 66.4 µM.

As for `COc1cc(/C=C2/SC(c3ccccc3)N(c3cccc(Cl)c3)C2=O)cc(OC)c1OC` (stereo unspecified), the TGI in test [1] was 93.4 µM; in test [2], 39.9 µM; in test [3], above 100 µM; in test [4] it was above 100 µM; in test [5], 72 µM; in [6] it was 96.5 µM. In addition, the TGI in test [7] was above 100 µM; in test [8] it was above 100 µM; in test [9], above 100 µM; in test [10], above 100 µM; in test [11] it was 73.9 µM; in test [12], above 100 µM. The TGI in test [13] was above 100 µM; in test [14], above 100 µM; in [15] it was 72.6 µM; in [16], above 100 µM; in test [18], above 100 µM; in test [19], 77.4 µM.
